From ChEMBL document CHEMBL4002576, “Tetrahydropyranodiquinolin-8-amines as new, non hepatotoxic, antioxidant, and acetylcholinesterase inhibitors for Alzheimer's disease therapy” (Eur J Med Chem, 2017)
Activity calls are given as the source filed them. No cut-off for these calls is given here.

Tests used:
Acetylcholinesterase [1] = target: T1, Acetylcholinesterase (Homo sapiens, UniProt P22303); assay: Inhibition of recombinant human AChE expressed in HEK293 cells using acetylthiocholine iodide as substrate pretreated for 5 mins followed by substrate addition measured after 5 mins by spectrophotometry based Ellman method
T1 sequence (P22303 whole entry): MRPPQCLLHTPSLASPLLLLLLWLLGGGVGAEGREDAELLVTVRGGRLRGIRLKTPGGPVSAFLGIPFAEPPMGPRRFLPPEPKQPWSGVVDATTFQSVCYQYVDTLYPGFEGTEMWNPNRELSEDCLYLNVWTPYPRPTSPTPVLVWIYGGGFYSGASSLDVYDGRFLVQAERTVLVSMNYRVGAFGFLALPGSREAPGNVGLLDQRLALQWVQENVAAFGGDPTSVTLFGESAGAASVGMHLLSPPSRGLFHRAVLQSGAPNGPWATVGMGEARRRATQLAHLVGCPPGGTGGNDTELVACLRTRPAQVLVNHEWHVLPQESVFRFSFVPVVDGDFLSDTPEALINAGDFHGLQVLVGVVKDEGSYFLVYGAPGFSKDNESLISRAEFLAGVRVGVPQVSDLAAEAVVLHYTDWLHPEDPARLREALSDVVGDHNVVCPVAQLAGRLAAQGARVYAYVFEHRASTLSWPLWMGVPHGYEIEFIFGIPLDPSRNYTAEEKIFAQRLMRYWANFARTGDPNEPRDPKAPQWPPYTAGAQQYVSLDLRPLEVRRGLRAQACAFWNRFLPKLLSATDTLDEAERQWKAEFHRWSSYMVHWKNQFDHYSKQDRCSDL

Acetylcholinesterase [2] = target: Acetylcholinesterase (Electrophorus electricus, UniProt O42275)
Acetylcholinesterase (Electrophorus electricus, UniProt O42275), sequence (O42275 whole entry): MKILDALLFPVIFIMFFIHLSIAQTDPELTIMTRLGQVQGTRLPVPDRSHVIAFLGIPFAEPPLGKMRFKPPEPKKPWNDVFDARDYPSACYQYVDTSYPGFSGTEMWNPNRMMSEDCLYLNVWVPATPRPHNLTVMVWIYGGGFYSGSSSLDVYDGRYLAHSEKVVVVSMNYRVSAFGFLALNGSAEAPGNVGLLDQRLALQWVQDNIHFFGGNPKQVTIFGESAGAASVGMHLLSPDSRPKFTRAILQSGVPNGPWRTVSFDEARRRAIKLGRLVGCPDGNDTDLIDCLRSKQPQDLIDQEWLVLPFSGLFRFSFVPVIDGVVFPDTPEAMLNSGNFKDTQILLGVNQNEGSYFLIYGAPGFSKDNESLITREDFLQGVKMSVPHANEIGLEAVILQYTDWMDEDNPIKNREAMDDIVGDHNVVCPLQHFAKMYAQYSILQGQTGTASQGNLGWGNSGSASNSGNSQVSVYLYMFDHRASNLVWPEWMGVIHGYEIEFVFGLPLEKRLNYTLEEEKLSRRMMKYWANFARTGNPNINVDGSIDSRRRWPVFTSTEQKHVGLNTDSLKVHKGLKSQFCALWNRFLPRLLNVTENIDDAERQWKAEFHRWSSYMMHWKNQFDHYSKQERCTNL
Description: Inhibition of Electrophorus electricus AChE using acetylthiocholine iodide as substrate pretreated for 10 mins followed by substrate addition measured after 15 mins by spectrophotometry based Ellman method

Cholinesterase = Cholinesterase (Equus caballus, UniProt P81908); assay: Inhibition of horse serum BuChE using butyrylthiocholine as substrate pretreated for 10 mins followed by substrate addition measured after 15 mins by spectrophotometry based Ellman method
Cholinesterase, sequence (P81908 whole entry): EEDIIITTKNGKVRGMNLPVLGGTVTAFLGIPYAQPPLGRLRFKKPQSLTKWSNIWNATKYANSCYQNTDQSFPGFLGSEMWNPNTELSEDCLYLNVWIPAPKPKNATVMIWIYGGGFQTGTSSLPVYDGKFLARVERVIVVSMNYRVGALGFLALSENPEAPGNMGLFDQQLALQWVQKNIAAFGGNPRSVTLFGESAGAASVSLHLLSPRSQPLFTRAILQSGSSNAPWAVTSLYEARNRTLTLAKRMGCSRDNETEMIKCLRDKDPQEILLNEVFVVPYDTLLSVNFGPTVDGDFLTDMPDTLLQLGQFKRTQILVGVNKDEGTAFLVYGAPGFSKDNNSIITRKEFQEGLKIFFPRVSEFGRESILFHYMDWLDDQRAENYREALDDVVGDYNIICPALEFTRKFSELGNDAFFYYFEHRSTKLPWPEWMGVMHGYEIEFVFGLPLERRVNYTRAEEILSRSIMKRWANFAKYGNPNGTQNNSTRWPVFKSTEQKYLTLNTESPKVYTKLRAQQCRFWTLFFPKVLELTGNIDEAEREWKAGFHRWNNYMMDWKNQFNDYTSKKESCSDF

in vitro [3] = details: human, primary hepatocytes
Description: Cytotoxicity against human primary hepatocytes assessed as cell viability at 3 uM measured after 2 hrs by trypan blue assay relative to control

in vitro [4] = details: human, primary hepatocytes; remark: listed apart in the source
Description: Cytotoxicity against human primary hepatocytes assessed as cell viability at 100 uM measured after 2 hrs by trypan blue assay relative to control

in vitro [5] = details: human, primary hepatocytes; remark: listed apart in the source
Description: Cytotoxicity against human primary hepatocytes assessed as cell viability at 10 uM measured after 2 hrs by trypan blue assay relative to control

physchem = details: PAMPA, pH 7.4
Description: Permeability of the compound at 100 uM at pH 7.4 measured after 6 hrs by PAMPA

[6] = Metal chelating activity assessed as compound-Cu2+ complex formation at 10 uM in presence of CuSO4 after 20 hrs by UV-visible spectrophotometric analysis; type: functional
in vitro [7] = details: human, primary hepatocytes; remark: listed apart in the source
Description: Cytotoxicity against human primary hepatocytes assessed as cell viability at 0.1 uM measured after 2 hrs by trypan blue assay relative to control

in vitro [8] = details: human, primary hepatocytes; remark: listed apart in the source
Description: Cytotoxicity against human primary hepatocytes assessed as cell viability at 1 uM measured after 2 hrs by trypan blue assay relative to control

[9] = Metal chelating activity assessed as compound-Fe2+ complex formation at 10 uM in presence of FeSO4 after 60 mins by UV-visible spectrophotometric analysis; type: functional
[10] = Metal chelating activity assessed as compound-Fe2+ complex formation at 10 uM in presence of FeSO4 after 20 hrs by UV-visible spectrophotometric analysis; type: functional
in vitro [11] = details: human, primary hepatocytes; remark: listed apart in the source
Description: Cytotoxicity against human primary hepatocytes assessed as cell viability at 30 uM measured after 2 hrs by trypan blue assay relative to control

Acetylcholinesterase [12] = target: T1, Acetylcholinesterase; assay: Non-competitive inhibition of recombinant human AChE expressed in HEK293 cells using varying levels of acetylthiocholine iodide as substrate pretreated for 5 mins followed by substrate addition measured after 5 mins by Lineweaver-burk plot analysis
[13] = Metal chelating activity assessed as compound-Cu2+ complex formation at 10 uM in presence of CuSO4 after 60 mins by UV-visible spectrophotometric analysis; type: functional

| SMILES | IC50 (Acetylcholinesterase [2]) | IC50 (Cholinesterase; read-out: IC50) | IC50 (Cholinesterase) | IC50 (Acetylcholinesterase [1]; read-out: IC50) | also measured |
| --- | --- | --- | --- | --- | --- |
| Nc1c2c(nc3c1C(c1cccnc1Br)c1ccc4cccnc4c1O3)CCCC2 (stereo not drawn) | 190 nM | 2860 nM |  |  | IC50 (Acetylcholinesterase [1]; hek293): Not Active |
| COc1ccccc1C1c2ccc3cccnc3c2Oc2nc3c(c(N)c21)CCCC3 (stereo not drawn) | 80 nM | 1510 nM |  |  |  |
| Nc1c2c(nc3c1C(c1ccncc1)c1ccc4cccnc4c1O3)CCCC2 (stereo not drawn) | 470 nM |  | Not Active |  | IC50 (Acetylcholinesterase [1]; hek293): Not Active |
| Nc1c2c(nc3c1C(c1ccccc1F)c1ccc4cccnc4c1O3)CCCC2 (stereo not drawn) | 110 nM | 630 nM |  |  |  |
| COc1ccc(C2c3ccc4cccnc4c3Oc3nc4c(c(N)c32)CCCC4)cc1 (stereo not drawn) | 40 nM | 1300 nM |  | 1510 nM |  |
| Nc1c2c(nc3c1C(c1ccc([N+](=O)[O-])cc1)c1ccc4cccnc4c1O3)CCCC2 (stereo not drawn) | 240 nM |  | Not Active |  |  |
| COc1cccc(C2c3ccc4cccnc4c3Oc3nc4c(c(N)c32)CCCC4)c1 (stereo not drawn) | 40 nM | 1300 nM |  | 750 nM | viability at 2 h, 3 µM (in vitro [3]): 83%; viability at 2 h, 100 µM (in vitro [4]): 89%; viability at 2 h, 10 µM (in vitro [5]): 89%; Papp at 6 h, 100 µM (physchem): 5.41 ×10⁻⁶ cm/s; Activity [6]: inactive; viability at 2 h, 0.1 µM (in vitro [7]): 89%; viability at 2 h, 1 µM (in vitro [8]): 84%; Activity [9]: inactive; Activity [10]: inactive; viability at 2 h, 30 µM (in vitro [11]): 99%; Ki (Acetylcholinesterase [12]): 870 nM; Activity [13]: inactive |
| Nc1c2c(nc3c1C(c1ccccc1Br)c1ccc4cccnc4c1O3)CCCC2 (stereo not drawn) | 140 nM | 210 nM |  |  |  |
| Nc1c2c(nc3c1C(c1cccc(F)c1)c1ccc4cccnc4c1O3)CCCC2 (stereo not drawn) | 90 nM |  | Not Active | 2200 nM |  |
| Cc1ccc(C2c3ccc4cccnc4c3Oc3nc4c(c(N)c32)CCCC4)cc1 (stereo not drawn) | 40 nM | 530 nM |  | 2850 nM |  |
| Nc1c2c(nc3c1C(c1c(Cl)cccc1Cl)c1ccc4cccnc4c1O3)CCCC2 (stereo not drawn) | 100 nM |  | Not Active |  |  |
| Nc1c2c(nc3c1C(c1ccccc1)c1ccc4cccnc4c1O3)CCCC2 (stereo not drawn) | 60 nM | 1110 nM |  | 1730 nM |  |
